One data set has as its system DENV2. Nature of the data set: Cell-based Flavivirus Immunodetection (CFI) assay, DENV envelope protein production in A549 cells. As to conditions: ± standard deviation, at least three independent experiments. Also noted: species or system dengue virus serotype 2. The protocol:
(§1) The antiviral activity of the test compounds (1, 3, 6, and 7) was examined in the Cell-based Flavivirus Immuno-assay (CFI assay). The CFI assay is based on a quantitative immunodetection of the DENV envelope protein production in A549 cells. Infection of the A549 cells by the DENV2 was allowed to occur in the presence of each test compound, after which virus load was measured by quantifying the amount of envelope protein that is produced using enzyme linked immunosorbent assay (ELISA). To ensure that the inhibition of the envelope production was not due to cell death, the cytotoxicity of each test compound was assessed via the cell viability assay.
A549 cells (catalog no. CCL-185; ATCC, Manassas, VA, USA) were maintained in Ham’s F-12 medium with 10% fetal bovine serum (FBS) and 1% penicillin-streptomycin at 37 °C in 5% CO2. The DENV2 used in this study was prepared by inoculating monolayers of C6/36 cells grown in RPMI 1640 medium with 5% FBS and 1% penicillin-streptomycin. After incubation at 28 °C for four to five days, the cell culture supernatant was collected after clarification of cell debris and was stored at −80 °C until used.
A549 cells were trypsinised and diluted to a concentration of 2 × 10^5 cells/mL in culture medium containing 2% FBS. A total of 100 μL of the cell suspension (2 × 10^4 cells) was dispensed into each well of a 96-well tissue culture plate. The cells were grown overnight in culture medium at 37 °C with 5% CO2 and were then infected with the DENV at a multiplicity of infection of 0.3 in the presence of different concentrations of the test compounds for 1 h at 37 °C with 5% CO2. The virus inoculum was removed and then replaced with fresh medium containing the test compounds and the cells were incubated at 37 °C with 5% CO2 for 48 h. The cells were washed once with phosphate-buffered saline (PBS) and fixed with cold methanol for 10 min. After the fixed cells were washed twice with PBS, they were blocked with PBS containing 1% FBS and 0.05% Tween 20 for 1 h at room temperature. A primary antibody (antibody 4G2) solution was then added, and the mixture was incubated for 3 h. The cells were washed three times with PBS, followed by incubation for 1 h with horseradish peroxidase-conjugated anti-mouse immunoglobulin G. After the cells were washed three times with PBS, 3,3′,5,5′-tetramethylbenzidine substrate solution was added to each well, and the reaction was stopped by adding 0.5 M sulfuric acid. The absorbencies of the solutions were measured with a Tecan Safire II plate reader (Tecan Group Ltd., Männedorf, Switzerland) at 450 nm for viral antigen quantification. Dose-response curves were plotted from the mean absorbance versus the log of the concentration of the test compound. The IC50, that is, the concentration of the test compound that inhibited the level of viral envelope protein production by 50%, was calculated by nonlinear regression analysis. All of the experiments were conducted in triplicate.

The nature of data set [1]: Celltiter-Glo Luminescent cell viability assay (cytotoxicity). It is filed as cell-based. The following applies: human. The protocol:
as §1
(§2) The cytotoxicities of the test compounds were measured by a Celltiter-Glo Luminescent cell viability assay, according to the manufacturer’s protocol (catalog no. G7570; Promega, Madison, WI, USA). The A549 cell preparation and compound addition were performed, as described above under the “CFI assay”. After 48 h of incubation, the luminescent signals for cells treated with the test compounds were compared to those for cells treated with dimethyl sulfoxide (DMSO) to determine the CC50. […] All of the experiments were conducted in triplicate.
(Cellular ATP, detected with luciferase, serves as a proxy for viable cell number.)

Data set [2] deals with DENV. Details: method as in ref 9 (Lin and Chen, 2016). The following applies: small scale clinical study; ref 9 (Lin and Chen, 2016); cited from earlier work.
The subject of data set [3] is DENV. Details: method as in ref 8 (Koff et al., 1980). The following applies: all four serotypes, ref 8 (Koff et al., 1980); cited from earlier work.
For a further data set, the system named is A549 cells. The experiment in a line: Celltiter-Glo Luminescent cell viability assay (cytotoxicity). The format is cell-based. The following applies: A549 cells, 48 h, maximum concentration tested 100 µM. The procedure:
as §1, §2

Another data set concerns DENV2 NS2B/NS3 protease. Details: method as in ref 6 (Timiri et al., 2015). As to conditions: in vitro; ref 6 (Timiri et al., 2015); cited from earlier work.
Where [4] appears, read: Dengue virus, DENV2, A549, 48 h, CFI assay, A549 cells infected with DENV2, MOI 0.3, 48 h, read-out: DENV2 IC50.
Where [5] appears, read: A549 cells, 48 h, maximum concentration tested 100 µM, read-out: CC50.

Read-outs that look alike come from different tables or passages of the source.

Take `NC12CC3CC(CC(C3)C1)C2` [Compound 1, amantadine, reference compound]: the “DENV2 IC50” value in the data set on DENV2 (CFI assay, A549 cells infected with DENV2, MOI 0.3, 48 h) is reported as “did not show significant DENV2 activity”. In addition, in the data set with DENV2 (setting [4]), the IC50 was > 100 µM. Further, the CC50 at 48 h in data set [1] (CC50) was > 100 µM. Also, the “treatment effectiveness in DENV infected patients” value with DENV [2] is given as “effective treatment option”. Also, in the data set with DENV [3], the “anti-DENV activity in vitro” value is recorded as “anti-DENV activity on all four serotypes”.
As to `O=C(NC12CC3CC(CC(C3)C1)C2)c1ccc(S(=O)(=O)NC23CC4CC(CC(C4)C2)C3)cc1` [Compound 3, N-(adamantan-1-yl)-4-[(adamantan-1-yl)sulfamoyl]benzamide], the IC50 in the data set on DENV2 (CFI assay, A549 cells infected with DENV2, MOI 0.3, 48 h, read-out: DENV2 IC50) was determined as 22.4 ± 7.7 µM; in the data set with DENV2 (Dengue virus, DENV2, A549, 48 h, read-out: DENV2 IC50, CFI assay, A549 cells infected with DENV2, MOI 0.3, 48 h), 22.2 µM. Besides, the CC50 at 48 h in data set [1] (setting [5]) was < 100 µM. Further, the half-maximal cytotoxic concentration (CC50) in the data set on A549 cells is > 100 µM.
For `O=C(NC12CC3CC(CC(C3)C1)C2)c1ccccc1` [Compound 6, N-(adamantan-1-yl)benzamide], the IC50 in the data set on DENV2 (setting [4]) is > 100 µM. In addition, the CC50 at 48 h in data set [1] (setting [5]) is > 100 µM.
Regarding `NS(=O)(=O)c1ccc(C(=O)NC23CC4CC(CC(C4)C2)C3)cc1` [Compound 7, N-(adamantan-1-yl)-4-sulfamoylbenzamide], the IC50 in the data set on DENV2 (setting [4]) worked out at 42.8 ± 8.6 µM. In addition, the CC50 at 48 h in data set [1] (setting [5]) was < 100 µM. In addition, the CC50 in the data set with A549 cells was > 100 µM.
In the case of `CCc1ccc(NS(=O)(=O)c2ccc(N3C(=O)c4ccccc4C3=O)cc2)cc1` [SF1], the IC50 in the data set with DENV2 NS2B/NS3 protease is 48.2 µM.
Regarding `O=C1c2ccccc2C(=O)N1c1ccc(S(=O)(=O)Nc2cccc3ccccc23)cc1` [SF2], in the data set with DENV2 NS2B/NS3 protease, the concentration for half-maximal inhibition (IC50) was 122 µM.

The IC50 is the concentration at which inhibition is half-maximal. The term CC50 denotes the concentration at which the toxic effect on the cells reaches its halfway point.

These data come from article PMC6099921, “Microwave Optimized Synthesis of N-(adamantan-1-yl)-4-[(adamantan-1-yl)-sulfamoyl]benzamide and Its Derivatives for Anti-Dengue Virus Activity” (Molecules : A Journal of Synthetic Chemistry and Natural …, 2018).
